Measured values: article PMC8667942 (Journal of Enzyme Inhibition and Medicinal Chemistry, 2021)

How the values were obtained:
Assay in all cases: Direct CYP inhibition assay, pooled human liver microsomes, LC-MS/MS
Type in all cases: in vitro ADME
CYP1A2 = target: T1, CYP1A2 (Homo sapiens, UniProt P05177); details: pooled HLMs, up to 50 μM, phenacetin substrate
T1 construct: from tissue; host or cells: pooled human liver microsomes
T1 sequence (P05177 1-516): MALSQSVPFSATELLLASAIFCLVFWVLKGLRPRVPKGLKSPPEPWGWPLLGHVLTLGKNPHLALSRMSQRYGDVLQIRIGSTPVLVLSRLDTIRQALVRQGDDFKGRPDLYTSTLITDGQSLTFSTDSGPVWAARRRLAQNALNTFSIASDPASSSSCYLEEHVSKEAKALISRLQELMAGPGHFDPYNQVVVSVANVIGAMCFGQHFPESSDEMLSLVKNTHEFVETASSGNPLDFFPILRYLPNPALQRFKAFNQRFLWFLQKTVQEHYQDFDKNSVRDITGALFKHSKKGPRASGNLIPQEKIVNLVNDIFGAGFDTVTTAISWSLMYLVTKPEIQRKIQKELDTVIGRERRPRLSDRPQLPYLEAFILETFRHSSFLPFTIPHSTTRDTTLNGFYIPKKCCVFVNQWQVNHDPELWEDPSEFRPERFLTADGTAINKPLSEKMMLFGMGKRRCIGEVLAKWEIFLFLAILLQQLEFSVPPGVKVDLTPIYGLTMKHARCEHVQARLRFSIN
Procedure: (§1) Reactions were incubated in eight-well strips placed in an 8 × 12 racks (1.2 ml; VWR, Emeryville, CA). The incubation mixtures (final volume, 200 μL) contained 0.2 mg/mL HLMs, 0.1 M phosphate buffer (pH 7.4), 1 mM NADPH, and various CYP isoform-specific substrate cocktail sets (A set: phenacetin, coumarin, amodiaquine, S-mephenytoin, dextromethorphan, and midazolam; B set: bupropion, tolbutamide, chlorzoxazone, and testosterone). […] Substrates were dissolved and serially diluted with acetonitrile to the required concentration in all experiments. […] The reactions were incubated at 37 °C in a shaking water bath. The reactions were terminated by placing the incubation tubes on ice, adding 200 μL of cold acetonitrile containing carbamazepine (100 nM) and 4-methylumbelliferone (500 nM) as an internal standard after 10 min, and agitating with a vortex mixer before centrifugation. The samples for each enzyme assay were centrifuged at 3,000 × g for 20 min at 4 °C, and supernatants of the individual reaction samples and pooled cocktail incubation samples (A set: B set, 1:1) were analysed using LC-MS/MS.
(§2) Sample injection volume was 10 μL, and separation was performed on an Atlantis™ dC18 column (2.1 × 50 mm i.d., 3 μm; Waters, Milford, MA, USA) and Luna™5u C18 column (2.0 × 30 mm i.d.; Phenomenex, Torrance, CA, USA) with a SecurityGuard™ C18 guard column (2.0 × 4.0 mm i.d.; Phenomenex, Torrance, CA, USA) maintained at 30 °C. The column was pre-equilibrated in 100% v/v solvent A (deionized water containing 0.1% v/v formic acid)/0% v/v solvent B (acetonitrile containing 0.1% v/v formic acid) at a flow rate of 0.4 ml/min. […] Quadrupoles Q1 and Q3 were set on unit resolution. The samples were analysed via multiple reaction monitoring (MRM) and enhanced product ion (EPI) scan mode. The turbo ion spray interface was operated in the positive ion mode at 5,500 V. The operating conditions were determined as follows: ion source temperature, 600 °C; nebulising gas flow, 50 L/min; auxiliary gas flow, 4.0 L/min; curtain gas flow, 20 L/min; collision gas (nitrogen) pressure 3.6 × 10^−5 Torr. Nitrogen gas was used for CUR, CAD, and NEB. The MRM transitions, collision energies and retention time were determined for each metabolite. The samples were analysed via MRM as described in our previous study. The scan dwell time was set at 0.08 s for every channel. Data acquisition and analysis was performed using the Analyst™ software (version 1.5.2; Applied Biosystems, Foster City, CA, USA).

CYP2C8 = target: T2, CYP2C8 (Homo sapiens, UniProt P10632); details: pooled HLMs, up to 50 μM, amodiaquine substrate
T2 construct: from tissue; host or cells: pooled human liver microsomes
T2 sequence (P10632 1-490): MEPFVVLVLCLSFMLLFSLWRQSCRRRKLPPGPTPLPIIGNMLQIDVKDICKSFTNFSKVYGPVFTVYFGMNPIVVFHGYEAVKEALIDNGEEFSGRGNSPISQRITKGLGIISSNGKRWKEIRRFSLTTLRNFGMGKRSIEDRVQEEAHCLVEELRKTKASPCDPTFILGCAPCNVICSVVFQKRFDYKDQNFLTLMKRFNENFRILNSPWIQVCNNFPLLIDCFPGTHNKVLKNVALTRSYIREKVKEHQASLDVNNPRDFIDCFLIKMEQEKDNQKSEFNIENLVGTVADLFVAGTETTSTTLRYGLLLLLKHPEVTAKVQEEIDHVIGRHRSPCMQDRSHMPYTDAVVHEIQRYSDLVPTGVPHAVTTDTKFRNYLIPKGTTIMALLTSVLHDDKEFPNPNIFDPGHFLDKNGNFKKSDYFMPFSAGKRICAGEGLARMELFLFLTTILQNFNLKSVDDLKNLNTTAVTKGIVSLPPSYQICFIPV
Procedure: as §1, §2

CYP2E1 = target: T3, CYP2E1 (Homo sapiens, UniProt P05181); details: pooled HLMs, up to 50 μM, chlorzoxazone substrate
T3 construct: from tissue; host or cells: pooled human liver microsomes
Procedure: as §1, §2

CYP2D6 = target: T4, CYP2D6 (Homo sapiens, UniProt P10635); details: pooled HLMs, up to 50 μM, dextromethorphan substrate
T4 construct: from tissue; host or cells: pooled human liver microsomes
Procedure: as §1, §2

CYP2A6 = target: T5, CYP2A6 (Homo sapiens, UniProt P11509); details: pooled HLMs, up to 50 μM, coumarin substrate
T5 construct: from tissue; host or cells: pooled human liver microsomes
T5 sequence (P11509 1-494): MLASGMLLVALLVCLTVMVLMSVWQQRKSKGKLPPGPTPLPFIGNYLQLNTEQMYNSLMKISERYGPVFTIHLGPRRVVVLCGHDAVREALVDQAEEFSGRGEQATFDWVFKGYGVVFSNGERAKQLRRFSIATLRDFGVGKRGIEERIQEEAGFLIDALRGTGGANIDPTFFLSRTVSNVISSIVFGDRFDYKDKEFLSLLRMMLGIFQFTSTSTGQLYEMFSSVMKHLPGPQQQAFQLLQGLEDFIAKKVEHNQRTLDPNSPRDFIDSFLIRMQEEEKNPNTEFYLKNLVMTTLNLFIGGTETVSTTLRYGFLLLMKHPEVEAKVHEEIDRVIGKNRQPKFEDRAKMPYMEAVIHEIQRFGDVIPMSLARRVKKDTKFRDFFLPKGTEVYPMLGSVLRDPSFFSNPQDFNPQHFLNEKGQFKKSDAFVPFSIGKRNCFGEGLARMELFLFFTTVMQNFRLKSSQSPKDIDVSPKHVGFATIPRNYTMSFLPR
Procedure: as §1, §2

T4 sequence (P10635 whole entry): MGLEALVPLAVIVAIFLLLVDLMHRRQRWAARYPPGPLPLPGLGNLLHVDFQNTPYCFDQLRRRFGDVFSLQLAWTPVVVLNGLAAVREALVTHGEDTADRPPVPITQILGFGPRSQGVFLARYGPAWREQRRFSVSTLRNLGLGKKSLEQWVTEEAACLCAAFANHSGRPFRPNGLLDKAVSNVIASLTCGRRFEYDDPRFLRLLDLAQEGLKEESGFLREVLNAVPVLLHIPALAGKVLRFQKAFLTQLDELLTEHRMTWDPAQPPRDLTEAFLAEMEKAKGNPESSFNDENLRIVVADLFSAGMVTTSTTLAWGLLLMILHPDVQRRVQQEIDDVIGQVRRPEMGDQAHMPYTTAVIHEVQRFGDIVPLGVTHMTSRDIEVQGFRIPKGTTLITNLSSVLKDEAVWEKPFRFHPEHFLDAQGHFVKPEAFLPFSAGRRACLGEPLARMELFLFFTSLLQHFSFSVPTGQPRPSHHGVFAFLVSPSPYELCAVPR
T3 sequence (P05181 whole entry): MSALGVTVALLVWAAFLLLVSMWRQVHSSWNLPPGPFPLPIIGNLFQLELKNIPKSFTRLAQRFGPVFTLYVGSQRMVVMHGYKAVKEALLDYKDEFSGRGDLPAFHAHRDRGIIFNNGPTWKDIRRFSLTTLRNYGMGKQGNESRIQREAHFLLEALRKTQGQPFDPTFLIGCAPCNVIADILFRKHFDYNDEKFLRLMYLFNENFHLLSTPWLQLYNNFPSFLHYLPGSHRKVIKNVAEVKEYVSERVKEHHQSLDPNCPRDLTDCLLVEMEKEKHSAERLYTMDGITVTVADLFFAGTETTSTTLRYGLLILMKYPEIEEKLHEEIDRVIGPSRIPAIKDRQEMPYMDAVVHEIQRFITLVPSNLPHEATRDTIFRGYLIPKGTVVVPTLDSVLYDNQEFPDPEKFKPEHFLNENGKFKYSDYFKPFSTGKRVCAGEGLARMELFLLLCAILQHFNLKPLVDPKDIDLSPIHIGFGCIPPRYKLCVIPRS

O=[N+]([O-])c1ccc(CNc2nc(NCc3cccc(C(F)(F)F)c3)nc3[nH]cnc23)cc1 [TNP, N^6-[(4-nitrophenyl)methyl]-N^2-[[3-(trifluoromethyl)phenyl]methyl]-9H-purine-2,6-diamine]
no inhibitory effect: inhibitory effect on CYP1A2 (CYP1A2) | inhibitory effect on CYP2C8 (CYP2C8) | inhibitory effect on CYP2E1 (CYP2E1) | inhibitory effect on CYP2D6 (CYP2D6) | inhibitory effect on CYP2A6 (CYP2A6)
